Drawing on PubChem BioAssay (NCI), this text covers TGI for eight molecules.

Among the test systems are SW-620 colon; MCF7 breast; MOLT-4 leukemia; HCT-15 colon; NCI-H226 lung; HOP-62 NSCLC; MALME-3M melanoma; BT-549 breast; MDA-MB-435; NCI/ADR-RES ovarian; PC-3 prostate; HCT-116 colon; 786-0 renal; COLO 205 colon; SF-295 CNS; OVCAR-4 ovarian; K-562 leukemia; UACC-257 melanoma; UO-31 renal; SK-MEL-2 melanoma.
Test in all cases: inhibition of tumour cell growth, NCI panel, 48 h

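All cell lines were grown in 96-well plates and treated with compound for 48 hours. Definition used: TGI = concentration required for complete inhibition of growth.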

In the case of `CCc1c(N=[N+]=[N-])c2ccccc2oc1=O`, the TGI in the assay with SW-620 colon, in the assay on MCF7 breast, in the assay on MOLT-4 leukemia, in the assay on HCT-15 colon, with NCI-H226 lung and in the assay with HOP-62 NSCLC was over 100 µM each time. Also, the TGI in the assay on MALME-3M melanoma, in the assay on BT-549 breast, with MDA-MB-435, with NCI/ADR-RES ovarian, in the assay on PC-3 prostate and in the assay with HCT-116 colon was over 100 µM throughout. The TGI with 786-0 renal, with COLO 205 colon, in the assay on SF-295 CNS, in the assay on OVCAR-4 ovarian, in the assay on K-562 leukemia and in the assay with UACC-257 melanoma was over 100 µM in each case. This molecule also displayed a TGI in the assay on UO-31 renal of over 100 µM.
Regarding `CC(=O)OC(C(=O)NNC(=O)OC(C)(C)C)c1ccccc1` (stereo not drawn), the TGI in the assay on SW-620 colon, in the assay with MCF7 breast, with MOLT-4 leukemia, with HCT-15 colon, with NCI-H226 lung and with HOP-62 NSCLC was over 100 µM in each case. Also, the TGI in the assay with MALME-3M melanoma, in the assay with BT-549 breast, in the assay with MDA-MB-435, in the assay with NCI/ADR-RES ovarian, in the assay with PC-3 prostate and in the assay with 786-0 renal was over 100 µM in each case. The TGI with COLO 205 colon, in the assay with SF-295 CNS, in the assay on K-562 leukemia, with SK-MEL-2 melanoma and in the assay with UO-31 renal was over 100 µM each time.
On to `CC(C)=CCN1c2ccccc2[C@@]2(CC=C(C)C)CCN(C)[C@@H]12`, for which the TGI is over 100 µM with SW-620 colon; 34.4 µM with MCF7 breast; over 100 µM in the assay on MOLT-4 leukemia; over 100 µM in the assay with HCT-15 colon; over 100 µM in the assay with NCI-H226 lung; 55 µM in the assay on HOP-62 NSCLC. For the same molecule, the TGI was 38.4 µM in the assay with MALME-3M melanoma; over 100 µM in the assay on BT-549 breast; 54.3 µM with MDA-MB-435; 53.5 µM in the assay with NCI/ADR-RES ovarian; over 100 µM in the assay with PC-3 prostate; 73.2 µM in the assay with HCT-116 colon. The TGI with 786-0 renal was 53 µM; in the assay with COLO 205 colon, 26.8 µM; in the assay on SF-295 CNS, 46.6 µM; with OVCAR-4 ovarian, over 100 µM; with K-562 leukemia, 48.2 µM; in the assay on SK-MEL-2 melanoma, 33.3 µM. For the same molecule, the TGI with UO-31 renal came out at 41.8 µM.
As for `COc1ccc(CCN2C(=O)C(=O)C(C(=O)c3ccccc3)C2c2ccccc2)cc1OC` (stereo not drawn), the TGI in the assay with SW-620 colon, with MCF7 breast, in the assay on MOLT-4 leukemia, in the assay on HCT-15 colon, in the assay on HOP-62 NSCLC and with MALME-3M melanoma was over 100 µM in each case. In addition, the TGI in the assay with BT-549 breast, with MDA-MB-435, with NCI/ADR-RES ovarian, in the assay on PC-3 prostate, in the assay on HCT-116 colon and in the assay on 786-0 renal was over 100 µM throughout. For the same molecule, the TGI in the assay with COLO 205 colon, in the assay on SF-295 CNS, with K-562 leukemia, with UACC-257 melanoma, with SK-MEL-2 melanoma and in the assay on UO-31 renal was over 100 µM in each case.
With `CCOc1cc(NC(C)=O)ccc1C(=O)NN1C(=O)/C(=C/c2ccc(Cl)cc2)N=C1c1ccccc1`, the TGI in the assay on SW-620 colon, in the assay with MCF7 breast, in the assay on MOLT-4 leukemia, in the assay on HCT-15 colon, in the assay with NCI-H226 lung and with HOP-62 NSCLC was over 100 µM each time. Moreover, the TGI in the assay with BT-549 breast, with MDA-MB-435, in the assay with NCI/ADR-RES ovarian, in the assay on PC-3 prostate, in the assay on HCT-116 colon and with 786-0 renal was over 100 µM each time. Moreover, the TGI in the assay on COLO 205 colon, in the assay with SF-295 CNS, with OVCAR-4 ovarian, in the assay on K-562 leukemia, in the assay with UACC-257 melanoma and with SK-MEL-2 melanoma was over 100 µM throughout. For the same molecule, in the assay with UO-31 renal, the TGI is over 100 µM.
In the case of `C[C@@H](NC(=O)Nc1cccc(C(=O)Nc2cc(C(C)(C)C)ccc2C(=O)O)n1)c1ccccc1`, the TGI in the assay on SW-620 colon was over 100 µM; in the assay on MCF7 breast it was 47.9 µM; in the assay on MOLT-4 leukemia it was over 100 µM; with HCT-15 colon, over 100 µM; in the assay with NCI-H226 lung, over 100 µM; in the assay with HOP-62 NSCLC, 86.1 µM. Moreover, the TGI with MALME-3M melanoma was over 100 µM; in the assay on BT-549 breast it was over 100 µM; in the assay with MDA-MB-435, over 100 µM; in the assay on NCI/ADR-RES ovarian, over 100 µM; in the assay with PC-3 prostate, 79.1 µM; in the assay with HCT-116 colon, 44.1 µM. Besides, the TGI in the assay with 786-0 renal is over 100 µM; in the assay on COLO 205 colon, 60.6 µM; with SF-295 CNS it was 76.2 µM; in the assay on OVCAR-4 ovarian, over 100 µM; with K-562 leukemia, over 100 µM; in the assay with SK-MEL-2 melanoma, 39 µM. For the same molecule, the TGI in the assay with UO-31 renal was over 100 µM.
Consider `O=C(O)c1ccc2nc(-c3ccccn3)c(-c3ccccn3)nc2c1`, for which the TGI with SW-620 colon, with MCF7 breast, in the assay with MOLT-4 leukemia, in the assay with HCT-15 colon, in the assay with NCI-H226 lung and in the assay with HOP-62 NSCLC was over 100 µM each time. The TGI in the assay on BT-549 breast, with MDA-MB-435, in the assay with NCI/ADR-RES ovarian, in the assay with PC-3 prostate, with HCT-116 colon and in the assay on 786-0 renal was over 100 µM each time. In addition, the TGI in the assay on COLO 205 colon, in the assay with SF-295 CNS, in the assay with OVCAR-4 ovarian, with K-562 leukemia, with UACC-257 melanoma and in the assay on SK-MEL-2 melanoma was over 100 µM in each case. Besides, the TGI with UO-31 renal is over 100 µM.
`C/C(=N\NC(N)=O)C(CN1CCOCC1)C(c1ccccc1)c1c(O)c2ccccc2oc1=O` (stereo not drawn): the TGI in the assay with SW-620 colon, in the assay with MCF7 breast, with MOLT-4 leukemia, in the assay with HCT-15 colon, with NCI-H226 lung and in the assay on MALME-3M melanoma was over 100 µM each time. For the same molecule, the TGI in the assay with BT-549 breast, with MDA-MB-435, in the assay on NCI/ADR-RES ovarian, in the assay with PC-3 prostate, in the assay on HCT-116 colon and in the assay with 786-0 renal was over 100 µM each time. In addition, the TGI in the assay with COLO 205 colon, in the assay on OVCAR-4 ovarian, in the assay on K-562 leukemia, in the assay on UACC-257 melanoma, in the assay with SK-MEL-2 melanoma and with UO-31 renal was over 100 µM in each case.
